The structures appear in SMILES notation.

Consider one molecule from patent US20070031347A1, “Powdered Medicaments Containing A Tiotropium Salt and Salmeterol Xinafoate” (Boehringer Ingelheim Pharma GmbH & Co. KG, priority 2002, published 2007).

This series in a line: compacted bulk volume (tapped density, Ph. Eur. 4 / Carr packed bulk density). Type of series: physicochemical. The method, then:
The compacted bulk volume is determined by the test method of the European Pharmacopoeia 4 (2002): “apparent density after settling”/“density of settled product”, identical to the “tapped density”, measured in grams per millilitre) or as the “Carr packed bulk density” according to the ASTM standard (D6393-99, Standard Test Method for Bulk Solids Characterization by Carr Indices), measured in grams per cm^3. The compacted bulk volume is a measurement of the volume which is taken up by solid, comminuted materials after they have been compacted under defined conditions.

Turning to `OCc1cc(C(O)CNCCCCCCOCCCCc2ccccc2)ccc1O` (centres unmarked) [salmeterol xinafoate], the compacted bulk volume is 0.27 g/mL (crystalline salmeterol xinafoate as obtained from ethanol/tert.butylmethylether, before micronisation) and 0.19 g/mL (micronised salmeterol xinafoate (air jet mill, grinding pressure 7.5 bar, feed pressure 8.0 bar)).
